Reference: patent US5476866A, “Isoxazoles” (Roussel Uclaf, priority 1993, dated 1995)

How the values were obtained:
[1] = Kinetic data: plasma concentrations after oral administration to mice; format: in vivo; conditions: 30 mg/kg oral; for half-life: mouse, plasma concentrations monitored for 72 hours, read-out: metabolic half-life (converted); for metabolic half-life relative to the known compound: fraction of known compound's half-life (approximately 21.4 hours)
Experimental: A comparison was made between a known compound, namely 5 -cyclopropyl-N-(4-trifluoromethylphenyl)-isoxazole-4-carboxamide and the compounds of the present invention, namely compounds of Examples 5 and 6 above. The compounds were administered orally to mice at doses of 30 mg/kg and plasma concentrations were monitored for 72 hours.

[2] = test system: Carrageenan rat paw oedema; experiment: Carrageenan rat paw oedema (Test 1); format: in vivo, male rats CFHB; conditions: 50 mg/kg p.o.; 1 h before carrageenan; oedema assessed 3 h later
Experimental: Carrageenan rat paw oedema (Test 1)
One hour after the oral administration of the test compounds or control vehicle to groups of 6 to 12 male rats CFHB with a weight range of 160-180 g, 1 mg of carrageenan dissolved in 0.2 ml of saline was injected into the right hind foot pad. Contralateral paws received control saline injections and paw oedema responses were assessed three hours later.

[3] = test system: Reverse Passive Arthus Reaction; experiment: Reverse Passive Arthus Reaction (Test 5); format: in vivo, male or female Wistar rats; conditions: paw volume at 4 h
Experimental: Reverse Passive Arthus Reaction (Test 5)
One hour before challenge, test compounds were administered orally to male or female Wistar rats weighing 120-200 g. After this pre-treatment period, the reaction was induced by a subplantar injection of goat anti-rat serum in the right hind paw. The left hind paw, which served as a control, was injected with saline alone. Paw volumes were determined immediately and four hours after antibody challenge. Doses are given in units of mg/kg p.o.

[4] = test system: Delayed-type hypersensitivity mouse paw oedema; experiment: Delayed-type hypersensitivity mouse paw oedema (DTH-M) (Test 2); format: in vivo, male mice CD-1; conditions: daily days 4-6, twice day 7, 24 h after MBSA challenge
Experimental: Delayed-type hypersensitivity mouse paw oedema (DTH-M) (Test 2)
Groups of 8 to 10 male mice CD-1 with a weight range of 25-30 g were sensitized by the subcutaneous injection of 1 mg of methylated bovine serum albumin (MBSA) in 0.2 ml volumes of saline/Freund's complete adjuvant (FCA) emulsion. Negative control groups received injections of saline/FCA emulsion. DTH paw oedema responses were assessed twenty-four hours after the right hind foot pad challenge with 0.1 mg of MBSA in 0.05 ml volumes of saline on day seven after sensitization. Contralateral paws received control saline injections. The test compounds or control vehicles were orally administered daily on days four, five, six and twice on day seven, one hour before and six hours after MBSA challenge.

Adjuvant arthritis = Adjuvant arthritis (Test 4); format: in vivo, male rats of a Wistar-Lewis strain; conditions: 25 mg/kg p.o. once daily for 12 days from day of immunization; vs untreated control
Experimental: Adjuvant arthritis (Test 4) The investigations were carried out by the method of Pearson (Arthrit. Rheum., Vol. 2, (1959) p. 44). The experimental animals used were male rats of a Wistar-Lewis strain having a body weight between 130 to 200 g. The compounds to be tested were administered orally once daily for 12 days, starting on the day of immunization. The animals of a control group received only the vehicle. Each preparation and control group comprised 6 animals. The criterion used to determine activity was the percentage reduction in the increase in paw volume compared to that of the untreated control group.

[5] = test system: Delayed-type hypersensitivity rat paw oedema; experiment: Delayed-type hypersensitivity rat paw oedema (Test 3); format: in vivo, male rats CFHB; conditions: daily days 4-6, twice day 7, 24 h after antigen challenge
[6] = 50 mg/kg p.o. 1 h before challenge
[7] = 100 mg/kg p.o. 1 h before challenge

half-life [1] [h]	metabolic half-life relative to the known compound [1]	Structure (SMILES)	Test 1 % inhibition [2] [%]	Test 5 % inhibition [3, 6] [%]	Test 5 % inhibition [3, 7] [%]	Test 2 % inhibition ([4]; 100 mg/kg p.o.) [%]	Test 4 % inhibition (percentage reduction in the increase in paw volume) (Adjuvant arthritis) [%]	Test 3 % inhibition ([5]; 50 mg/kg p.o.) [%]	Test 2 % inhibition ([4]; 30 mg/kg p.o.) [%]	Test 3 % inhibition ([5]; 10 mg/kg p.o.) [%]
~21.4	–	O=C(Nc1ccc(C(F)(F)F)cc1)c1cnoc1C1CC1 [5-cyclopropyl-N-(4-trifluoromethylphenyl)-isoxazole-4-carboxamide, reference compound]	–	–	–	–	–	–	–	–
–	–	Cc1cc(NC(=O)c2cnoc2C2CC2)ccc1Br [Example 1, 5-cyclopropyl-N-(4-bromo-3-methylphenyl)-isoxazole-4-carboxamide]	12	42	26	41	-16	24	–	–
–	–	O=C(Nc1ccc([N+](=O)[O-])cc1)c1cnoc1C1CC1 [Example 2, 5-cyclopropyl-N-(4-nitrophenyl)-isoxazole-4-carboxamide]	0	-9	27	19	92	52	–	–
–	–	N#Cc1ccc(NC(=O)c2cnoc2C2CC2)cc1 [Example 3, 5-cyclopropyl-N-(4-cyanophenyl)-isoxazole-4-carboxamide]	43	41	36	–	90	–	43	60
–	–	Cc1cc(NC(=O)c2cnoc2C2CC2)ccc1Cl [Example 4, 5-cyclopropyl-N-(4-chloro-3-methylphenyl)-isoxazole-4-carboxamide]	11	17	28	64	22	32	–	–
7.1	about one third	Cc1cc(NC(=O)c2cnoc2C2CC2)ccc1C#N [Example 5, 5-cyclopropyl-N-(4-cyano-3-methylphenyl)-isoxazole-4-carboxamide]	18	23	34	–	88	–	41	62
8.2	about one third	Cc1cc(NC(=O)c2cnoc2C2CC2)ccc1C(F)(F)F [Example 6, 5-cyclopropyl-N-(3-methyl-4-trifluoromethylphenyl)-isoxazole-4-carboxamide]	12	24	38	34	42	57	–	–
